According to ChEMBL document CHEMBL4715861, “Design, synthesis and biological evaluation of new bivalent quinazoline analogues as IAP antagonists” (Bioorg Med Chem Lett, 2021):
pIC50, pKi: −log10 of the molar value. One block for each compound: values may come before it. The source made the active and inactive calls. The rule behind the calls is not given here.

What was measured:
MDA-MB-231 [1] = test: Cytotoxicity against human MDA-MB-231 cells; format: functional, cell-based
Cytochrome P450 3A4 = Cytochrome P450 3A4 (Homo sapiens, UniProt P08684); test: Inhibition of CYP3A4 (unknown origin); format: ADME
[2] = molecular target: T1, E3 ubiquitin-protein ligase XIAP (Homo sapiens, UniProt P98170); test: Antagonist activity at XIAP in human MDA-MB-231 cells assessed as fold change in Caspase-9 activation at 1 nM; format: cell-based; conditions: filed as antagonist
MDA-MB-468 = test: Cytotoxicity against human MDA-MB-468 cells; format: functional, cell-based
PANC-1 = test: Cytotoxicity against human PANC-1 cells; format: functional, cell-based
MDA-MB-231 [3] = test: Antitumour activity against in human MDA-MB-231 cells xenografted in mouse assessed as reduction in tumour burdens at 3 mg/kg, iv administered for 14 days and measured after 30 days; format: functional, organism-based; conditions: time 14.0 day
[4] = molecular target: T1, E3 ubiquitin-protein ligase XIAP; test: Binding affinity to human XIAP-BIR3 (241 to 356 residues)
Cytochrome P450 2D6 = Cytochrome P450 2D6 (Homo sapiens, UniProt P10635); test: Inhibition of CYP2D6 (unknown origin); format: ADME
[5] = Stability in rat microsomes assessed as parent compound remaining at 60 mins; format: ADME, Microsome; conditions: read-out: Stabilty
[6] = molecular target: Baculoviral IAP repeat-containing protein 2 (Homo sapiens) (UniProt Q13490); test: Induction of degradation of cIAP1-BIR3 domain in human MDA-MB-231 cells; format: cell-based; conditions: dose 1-5 nM
HS27 = test: Cytotoxicity against human HS27 cells; format: cell-based
MCF7 = test: Cytotoxicity against human MCF7 cells; format: functional, cell-based
[7] = molecular target: T1, E3 ubiquitin-protein ligase XIAP; test: Induction of degradation of XIAP-BIR3 domain in human MDA-MB-231 cells; format: cell-based; conditions: dose 1-5 nM
BXPC-3 = test: Cytotoxicity against human BxPC3 cells; format: functional, cell-based
Cytochrome P450 1A2 = molecular target: T2, Cytochrome P450 1A2 (Homo sapiens, UniProt P05177); test: Inhibition of CYP1A2 (unknown origin); format: ADME
T2 sequence (P05177 whole entry): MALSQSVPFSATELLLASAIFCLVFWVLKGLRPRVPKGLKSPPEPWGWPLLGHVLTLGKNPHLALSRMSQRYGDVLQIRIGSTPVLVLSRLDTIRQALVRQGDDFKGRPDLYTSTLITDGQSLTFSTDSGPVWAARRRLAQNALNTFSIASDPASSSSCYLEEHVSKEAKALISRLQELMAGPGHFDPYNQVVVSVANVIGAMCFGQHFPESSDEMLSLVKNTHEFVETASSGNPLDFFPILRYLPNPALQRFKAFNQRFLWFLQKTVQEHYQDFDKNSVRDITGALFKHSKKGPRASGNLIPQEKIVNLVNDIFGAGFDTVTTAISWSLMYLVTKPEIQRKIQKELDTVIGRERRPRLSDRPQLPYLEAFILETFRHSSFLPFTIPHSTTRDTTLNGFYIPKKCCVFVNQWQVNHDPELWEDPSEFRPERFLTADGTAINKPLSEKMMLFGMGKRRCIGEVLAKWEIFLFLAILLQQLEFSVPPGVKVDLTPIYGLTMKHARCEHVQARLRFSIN

OVCAR-3 = test: Cytotoxicity against human OVCAR-3 cells; format: functional, cell-based
[8] = molecular target: Baculoviral IAP repeat-containing protein 3 (Homo sapiens) (UniProt Q13489); test: Induction of degradation of cIAP2-BIR3 domain in human MDA-MB-231 cells; format: cell-based; conditions: dose 1-5 nM
[9] = molecular target: T1, E3 ubiquitin-protein ligase XIAP; test: Antagonist activity at XIAP in human MDA-MB-231 cells assessed as fold change in Caspase-3 activation at 1 nM; format: cell-based; conditions: filed as antagonist
[10] = Toxicity in mouse xenografted with human MDA-MB-231 cells assessed as reduction in weight at 3 mg/kg, iv administered for 14 days and measured after 30 days; format: organism-based; conditions: in vivo, 336 h, time 14 day
[11] = Stability in mouse microsomes assessed as parent compound remaining at 60 mins; format: ADME, Microsome; conditions: read-out: Stabilty
J82 = test: Cytotoxicity against human J82 cells; format: functional, cell-based
MDA-MB-231 [12] = test: Cytotoxicity against human MDA-MB-231 cells assessed as cell viability at 1 nM (reference value: 98%); format: functional; conditions: read-out: Activity
[13] = Stability in human microsomes assessed as parent compound remaining at 60 mins; format: ADME, Microsome; conditions: read-out: Stabilty
[14] = Stability in dog microsomes assessed as parent compound remaining at 60 mins; format: ADME, Canis lupus familiaris, Microsome; conditions: read-out: Stabilty
Cytochrome P450 2C9 = Cytochrome P450 2C9 (Homo sapiens, UniProt P11712); test: Inhibition of CYP2C9 (unknown origin); format: ADME
Cytochrome P450 2C19 = Cytochrome P450 2C19 (Homo sapiens, UniProt P33261); test: Inhibition of CYP2C19 (unknown origin); format: ADME
MDA-MB-231 [15] = test: Cytotoxicity against human MDA-MB-231 cells assessed as cell viability at 2 nM (reference value: 98%); format: functional; conditions: read-out: Activity
MIA PaCa-2 = test: Cytotoxicity against human MIA PaCa-2 cells; format: functional, cell-based
MDA-MB-231 [16] = test: Cytotoxicity against human MDA-MB-231 cells assessed as cell viability at 5 nM (reference value: 98%); format: functional; conditions: read-out: Activity
[17] = Toxicity in mouse xenografted with human MDA-MB-231 cells assessed as inflammation around injection site at 3 mg/kg, iv after 6 days; format: organism-based; conditions: in vivo, 144 h, time 6 day

Chain of Cytochrome P450 3A4 (P08684 whole entry): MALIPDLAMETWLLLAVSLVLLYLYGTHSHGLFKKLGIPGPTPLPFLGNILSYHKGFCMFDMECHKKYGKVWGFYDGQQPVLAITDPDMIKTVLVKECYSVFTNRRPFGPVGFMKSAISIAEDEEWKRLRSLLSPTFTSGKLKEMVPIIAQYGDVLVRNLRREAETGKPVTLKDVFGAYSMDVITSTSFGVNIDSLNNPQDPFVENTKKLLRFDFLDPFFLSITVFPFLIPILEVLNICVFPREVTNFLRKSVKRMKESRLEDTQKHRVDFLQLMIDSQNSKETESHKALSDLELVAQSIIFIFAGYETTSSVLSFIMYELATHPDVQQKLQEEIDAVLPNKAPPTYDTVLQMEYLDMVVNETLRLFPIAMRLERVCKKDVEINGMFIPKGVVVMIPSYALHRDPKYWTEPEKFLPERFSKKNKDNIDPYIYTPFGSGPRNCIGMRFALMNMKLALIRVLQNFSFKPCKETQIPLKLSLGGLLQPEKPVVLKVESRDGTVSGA
T1 sequence (P98170 whole entry): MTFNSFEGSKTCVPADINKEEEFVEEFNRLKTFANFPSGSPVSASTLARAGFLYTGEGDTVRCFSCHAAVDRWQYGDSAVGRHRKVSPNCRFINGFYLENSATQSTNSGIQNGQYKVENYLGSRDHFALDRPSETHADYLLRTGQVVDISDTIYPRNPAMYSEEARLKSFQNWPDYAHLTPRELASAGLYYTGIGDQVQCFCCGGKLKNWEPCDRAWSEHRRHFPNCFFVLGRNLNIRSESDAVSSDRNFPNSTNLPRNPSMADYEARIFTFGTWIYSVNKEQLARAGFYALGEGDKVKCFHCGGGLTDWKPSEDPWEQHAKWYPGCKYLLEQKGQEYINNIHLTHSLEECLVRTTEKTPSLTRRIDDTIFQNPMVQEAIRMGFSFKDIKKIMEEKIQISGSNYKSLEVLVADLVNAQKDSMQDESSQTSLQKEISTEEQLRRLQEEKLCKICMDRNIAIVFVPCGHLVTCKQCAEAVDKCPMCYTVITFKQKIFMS
Chain of Cytochrome P450 2C9 (P11712 whole entry): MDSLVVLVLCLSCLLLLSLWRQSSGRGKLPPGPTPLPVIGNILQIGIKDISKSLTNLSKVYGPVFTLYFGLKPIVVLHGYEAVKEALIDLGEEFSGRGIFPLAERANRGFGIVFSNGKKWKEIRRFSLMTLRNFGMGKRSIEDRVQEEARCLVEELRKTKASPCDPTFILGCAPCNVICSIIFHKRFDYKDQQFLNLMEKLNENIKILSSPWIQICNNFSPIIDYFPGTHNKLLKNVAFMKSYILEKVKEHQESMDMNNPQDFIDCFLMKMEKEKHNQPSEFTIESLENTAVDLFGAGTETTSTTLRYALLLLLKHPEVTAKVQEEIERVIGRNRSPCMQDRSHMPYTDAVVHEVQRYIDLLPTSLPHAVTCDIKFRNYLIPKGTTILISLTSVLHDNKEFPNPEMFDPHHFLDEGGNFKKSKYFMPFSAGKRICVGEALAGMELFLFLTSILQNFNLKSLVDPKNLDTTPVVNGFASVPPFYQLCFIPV
Chain of Cytochrome P450 2D6 (P10635 whole entry): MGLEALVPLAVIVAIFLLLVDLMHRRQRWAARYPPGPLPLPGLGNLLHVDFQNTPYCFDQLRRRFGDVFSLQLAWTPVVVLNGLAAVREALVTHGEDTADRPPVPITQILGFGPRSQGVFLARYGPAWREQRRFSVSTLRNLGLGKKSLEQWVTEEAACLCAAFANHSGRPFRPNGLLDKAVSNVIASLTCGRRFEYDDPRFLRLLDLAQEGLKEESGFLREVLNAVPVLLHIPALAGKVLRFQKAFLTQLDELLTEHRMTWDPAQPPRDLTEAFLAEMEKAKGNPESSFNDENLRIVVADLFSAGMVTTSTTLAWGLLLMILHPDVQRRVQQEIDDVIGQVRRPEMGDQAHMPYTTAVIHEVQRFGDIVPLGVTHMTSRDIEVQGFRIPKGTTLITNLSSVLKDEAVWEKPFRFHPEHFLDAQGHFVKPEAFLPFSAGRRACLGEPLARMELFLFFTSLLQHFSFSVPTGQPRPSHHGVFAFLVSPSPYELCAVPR
Chain of Cytochrome P450 2C19 (P33261 whole entry): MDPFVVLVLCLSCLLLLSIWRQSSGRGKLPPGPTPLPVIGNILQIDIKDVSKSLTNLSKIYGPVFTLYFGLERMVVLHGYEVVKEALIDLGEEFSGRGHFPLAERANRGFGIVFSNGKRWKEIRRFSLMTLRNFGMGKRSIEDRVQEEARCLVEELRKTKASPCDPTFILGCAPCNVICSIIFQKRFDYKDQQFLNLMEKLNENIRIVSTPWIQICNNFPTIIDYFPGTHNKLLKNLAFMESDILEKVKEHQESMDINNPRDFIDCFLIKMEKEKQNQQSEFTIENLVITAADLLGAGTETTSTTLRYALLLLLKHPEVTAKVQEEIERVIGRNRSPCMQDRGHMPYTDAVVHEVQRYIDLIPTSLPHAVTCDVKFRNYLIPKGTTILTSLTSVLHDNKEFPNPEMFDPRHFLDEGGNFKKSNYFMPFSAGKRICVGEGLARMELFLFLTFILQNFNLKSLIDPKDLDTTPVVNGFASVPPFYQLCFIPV
Chain of Baculoviral IAP repeat-containing protein 3 (Homo sapiens) (Q13489 whole entry, the tested form may be a part): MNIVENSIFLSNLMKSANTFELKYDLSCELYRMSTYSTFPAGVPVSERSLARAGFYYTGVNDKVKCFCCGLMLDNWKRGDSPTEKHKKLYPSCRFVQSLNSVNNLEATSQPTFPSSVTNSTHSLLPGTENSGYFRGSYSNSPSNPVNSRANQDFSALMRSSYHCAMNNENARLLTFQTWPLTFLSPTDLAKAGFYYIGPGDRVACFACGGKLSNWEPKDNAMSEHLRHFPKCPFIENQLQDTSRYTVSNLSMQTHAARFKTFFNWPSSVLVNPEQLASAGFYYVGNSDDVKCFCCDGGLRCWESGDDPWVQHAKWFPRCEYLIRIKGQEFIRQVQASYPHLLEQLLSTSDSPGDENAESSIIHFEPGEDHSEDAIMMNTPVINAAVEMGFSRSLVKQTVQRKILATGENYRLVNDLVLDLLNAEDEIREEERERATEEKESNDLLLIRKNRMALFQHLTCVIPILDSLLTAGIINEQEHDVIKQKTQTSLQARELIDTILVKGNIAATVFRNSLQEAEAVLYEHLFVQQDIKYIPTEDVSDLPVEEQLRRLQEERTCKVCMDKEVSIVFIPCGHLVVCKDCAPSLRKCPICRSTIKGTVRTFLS
Chain of Baculoviral IAP repeat-containing protein 2 (Homo sapiens) (Q13490 whole entry, the tested form may be a part): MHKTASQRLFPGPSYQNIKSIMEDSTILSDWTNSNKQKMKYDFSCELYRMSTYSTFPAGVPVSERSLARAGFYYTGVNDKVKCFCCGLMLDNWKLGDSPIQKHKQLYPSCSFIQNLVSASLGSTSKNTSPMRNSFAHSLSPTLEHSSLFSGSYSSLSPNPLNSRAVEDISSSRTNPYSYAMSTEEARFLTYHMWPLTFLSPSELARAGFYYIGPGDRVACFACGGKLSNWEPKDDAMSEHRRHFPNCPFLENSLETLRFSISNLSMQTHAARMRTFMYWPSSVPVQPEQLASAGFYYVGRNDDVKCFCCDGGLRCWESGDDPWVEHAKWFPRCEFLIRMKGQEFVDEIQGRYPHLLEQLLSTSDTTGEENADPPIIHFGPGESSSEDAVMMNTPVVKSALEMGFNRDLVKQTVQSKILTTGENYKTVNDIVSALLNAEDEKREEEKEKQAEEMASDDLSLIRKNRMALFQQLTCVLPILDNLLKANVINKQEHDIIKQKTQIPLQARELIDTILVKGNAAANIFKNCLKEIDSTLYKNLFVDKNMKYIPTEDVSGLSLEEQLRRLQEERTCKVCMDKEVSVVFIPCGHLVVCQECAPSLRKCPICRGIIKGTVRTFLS

- pIC50 (Cytochrome P450 3A4): 6.07
Compound: CN[C@@H](C)C(=O)N[C@H](C(=O)N1CCC[C@H]1C(=O)Nc1cc2c(OCC#CCOc3ncnc4cc(OC)c(NC(=O)[C@@H]5CCCN5C(=O)[C@@H](NC(=O)[C@H](C)NC)C(C)(C)C)cc34)ncnc2cc1OC)C(C)(C)C
- pIC50 (MDA-MB-231 [1]): 9.40

- fold change (FC) [2]: 10.7
- pKi [4]: 7.19
- pIC50 (Cytochrome P450 3A4): 5.45
- pIC50 (Cytochrome P450 2D6; read-out: IC50): < 4.30
- remaining at 1 h [5]: 100%
- Activity [6]: Dose-dependent effect
- Activity [7]: Dose-dependent effect
- pIC50 (Cytochrome P450 1A2): < 4.30
- Activity [8]: Dose-dependent effect
- fold change (FC) [9]: 3.4
- remaining at 1 h [11]: 94%
- remaining at 1 h [13]: 86%
- remaining at 1 h [14]: 63%
- pIC50 (Cytochrome P450 2C9): 4.36
- pIC50 (Cytochrome P450 2C19): 4.45
Compound: CN[C@@H](C)C(=O)N[C@H](C(=O)N1CCC[C@H]1C(=O)Nc1cc2c(N[C@H]3CC[C@H](Nc4ncnc5cc(OC)c(NC(=O)[C@@H]6CCCN6C(=O)[C@@H](NC(=O)[C@H](C)NC)C(C)(C)C)cc45)CC3)ncnc2cc1OC)C(C)(C)C
- pIC50 (MDA-MB-468): 7.56
- pIC50 (PANC-1): 9.05
- Activity (MDA-MB-231 [3]): Active
- pIC50 (MDA-MB-231 [1]): 9.85
- pIC50 (HS27): < 5.00
- pIC50 (MCF7): 7.72
- pIC50 (BXPC-3): 9.70
- pIC50 (OVCAR-3): 9.70
- Activity [10]: Non-Toxic
- pIC50 (J82): 7.76
- viability at 0.001 µM (MDA-MB-231 [12]): 67%
- viability at 0.002 µM (MDA-MB-231 [15]): 42%
- pIC50 (MIA PaCa-2): 10.00
- viability at 0.005 µM (MDA-MB-231 [16]): 30%

- pIC50 (Cytochrome P450 3A4): 6.37
Compound: CN[C@@H](C)C(=O)N[C@H](C(=O)N1CCC[C@H]1C(=O)Nc1cc2c(NCCCCCCCCNc3ncnc4cc(OC)c(NC(=O)[C@@H]5CCCN5C(=O)[C@@H](NC(=O)[C@H](C)NC)C(C)(C)C)cc34)ncnc2cc1OC)C(C)(C)C
- pIC50 (MDA-MB-231 [1]): 9.52

- pIC50 (Cytochrome P450 3A4): > 6.21
Compound: CN[C@@H](C)C(=O)N[C@H](C(=O)N1CCC[C@H]1C(=O)Nc1cc2c(NC[C@H]3CC[C@@H](CNc4ncnc5cc(OC)c(NC(=O)[C@@H]6CCCN6C(=O)[C@@H](NC(=O)[C@H](C)NC)C(C)(C)C)cc45)CC3)ncnc2cc1OC)C(C)(C)C
- pIC50 (MDA-MB-231 [1]): 9.39

- pIC50 (Cytochrome P450 3A4): 6.34
Compound: CN[C@@H](C)C(=O)N[C@H](C(=O)N1CCC[C@H]1C(=O)Nc1cc2c(NC[C@H]3CC[C@H](CNc4ncnc5cc(OC)c(NC(=O)[C@@H]6CCCN6C(=O)[C@@H](NC(=O)[C@H](C)NC)C(C)(C)C)cc45)CC3)ncnc2cc1OC)C(C)(C)C
- pIC50 (MDA-MB-231 [1]): 9.51

- remaining at 1 h [5]: 87%
- remaining at 1 h [11]: 62%
- remaining at 1 h [13]: 64%
- remaining at 1 h [14]: 65%
Compound: CN[C@@H](C)C(=O)N[C@H](C(=O)N1CCC[C@H]1C(=O)Nc1cc2c(NCC#CC#CCNc3ncnc4cc(OC)c(NC(=O)[C@@H]5CCCN5C(=O)[C@@H](NC(=O)[C@H](C)NC)C(C)(C)C)cc34)ncnc2cc1OC)C(C)(C)C
- pIC50 (MDA-MB-231 [1]): 9.52

- pIC50 (Cytochrome P450 3A4): 5.26
Compound: CN[C@@H](C)C(=O)N[C@H](C(=O)N1CCC[C@H]1C(=O)Nc1cc2c(N[C@H]3CC[C@@H](Nc4ncnc5cc(OC)c(NC(=O)[C@@H]6CCCN6C(=O)[C@@H](NC(=O)[C@H](C)NC)C(C)(C)C)cc45)CC3)ncnc2cc1OC)C(C)(C)C
- pIC50 (MDA-MB-231 [1]): 8.23

- pIC50 (Cytochrome P450 3A4): 5.25
Compound: CN[C@@H](C)C(=O)N[C@H](C(=O)N1CCC[C@H]1C(=O)Nc1cc2c(NCCOCCOCCNc3ncnc4cc(OC)c(NC(=O)[C@@H]5CCCN5C(=O)[C@@H](NC(=O)[C@H](C)NC)C(C)(C)C)cc34)ncnc2cc1OC)C(C)(C)C
- pIC50 (MDA-MB-231 [1]): 8.30

Second part, the compound before the results:

Compound: CN[C@@H](C)C(=O)N[C@H](C(=O)N1CCC[C@H]1C(=O)Nc1cc2c(Nc3ccc(OCC#CC#CCOc4ccc(Nc5ncnc6cc(OC)c(NC(=O)[C@@H]7CCCN7C(=O)[C@@H](NC(=O)[C@H](C)NC)C(C)(C)C)cc56)cn4)nc3)ncnc2cc1OC)C(C)(C)C
- pIC50 (MDA-MB-231 [1]): 7.46

Compound: CN[C@@H](C)C(=O)N[C@H](C(=O)N1CCC[C@H]1C(=O)Nc1cc2c(NCc3ccc(CNc4ncnc5cc(OC)c(NC(=O)[C@@H]6CCCN6C(=O)[C@@H](NC(=O)[C@H](C)NC)C(C)(C)C)cc45)cc3)ncnc2cc1OC)C(C)(C)C
- pIC50 (MDA-MB-231 [1]): 8.37

Compound: CN[C@@H](C)C(=O)N[C@H](C(=O)N1CCC[C@H]1C(=O)N(CCc1ccccc1)C(=O)C(F)(F)F)[C@H](C)OCC#CC#CCO[C@H](C)[C@H](NC(=O)[C@H](C)NC)C(=O)N1CCC[C@H]1C(=O)N(CCc1ccccc1)C(=O)C(F)(F)F
- Activity [17]: Toxic

Compound: CN[C@@H](C)C(=O)N[C@H](C(=O)N1CCC[C@H]1C(=O)Nc1cc2c(N3CCN(c4ncnc5cc(OC)c(NC(=O)[C@@H]6CCCN6C(=O)[C@@H](NC(=O)[C@H](C)NC)C(C)(C)C)cc45)CC3)ncnc2cc1OC)C(C)(C)C
- pIC50 (MDA-MB-231 [1]): 8.64

Compound: CN[C@@H](C)C(=O)N[C@H](C(=O)N1CCC[C@H]1C(=O)Nc1cc2c(NC[C@H]3CC[C@H](CNc4ncnc5cc(OC)c(NC(=O)[C@@H]6CCCN6C(=O)[C@@H](NC(=O)[C@H](C)NC)C6CCCCC6)cc45)CC3)ncnc2cc1OC)C1CCCCC1
- pIC50 (Cytochrome P450 3A4): 6.18
- pIC50 (MDA-MB-231 [1]): 8.99

Compound: CN[C@@H](C)C(=O)N[C@H](C(=O)N1CCC[C@H]1C(=O)Nc1cc2c(OCC#CC#CCOc3ncnc4cc(OC)c(NC(=O)[C@@H]5CCCN5C(=O)[C@@H](NC(=O)[C@H](C)NC)C(C)(C)C)cc34)ncnc2cc1OC)C(C)(C)C
- pIC50 (Cytochrome P450 3A4): 6.62
- IC50 (Cytochrome P450 2D6): Not Active
- pIC50 (MDA-MB-231 [1]): 9.70
- pIC50 (Cytochrome P450 1A2): < 4.30
- pIC50 (Cytochrome P450 2C9): 4.90
- pIC50 (Cytochrome P450 2C19): < 4.30
